From patent US10221163B2 (priority 2015, dated 2019)
Structures can show the parent of a compound that is named as a salt. Where two headings read alike, the source gives them in different places.

Assays:
VIM-1 = VIM-1 (Pseudomonas aeruginosa (strain ATCC 15692 / DSM 22644 / CIP 104116 / JCM 14847 / LMG 12228 / 1C / PRS 101 / PAO1), UniProt A0A0F7KYQ8); experiment: biochemical; conditions: CCF2-FA substrate, 30 pM enzyme, 2 hours at 25° C.
Method in brief: (§1)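 Enzyme activity was measured by fluorescence using CCF2-FA, a cephalosporin-linked 7-hydroxycoumarin/fluorescein substrate, with inhibitor, metallo-β-lactamase and substrate incubated together for 2 hours at 25° C. IC50 came from a 4-parameter fit of inhibition versus log inhibitor concentration.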

NDM-1 = NDM-1 (Klebsiella pneumoniae, UniProt C7C422); experiment: biochemical; format: biochemical; conditions: fluorescence assay, CCF2-FA substrate, 1 pM enzyme, 2 hours at 25° C.; read-out: NDM-1 IC50
Sequence of NDM-1 (C7C422 whole entry, looked up, species assumed): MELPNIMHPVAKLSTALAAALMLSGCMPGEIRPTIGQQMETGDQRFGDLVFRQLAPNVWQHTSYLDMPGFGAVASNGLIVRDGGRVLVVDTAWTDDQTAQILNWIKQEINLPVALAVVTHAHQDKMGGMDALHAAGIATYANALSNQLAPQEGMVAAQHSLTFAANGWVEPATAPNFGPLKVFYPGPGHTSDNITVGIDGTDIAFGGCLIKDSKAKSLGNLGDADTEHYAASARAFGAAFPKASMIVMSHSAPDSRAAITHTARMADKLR
Method in brief: as §1

IMP-1 = IMP-1 (Serratia marcescens, UniProt P52699); experiment: biochemical; format: biochemical; conditions: fluorescence assay, CCF2-FA substrate, 2 pM enzyme, 2 hours at 25° C.; read-out: IMP-1 IC50
Sequence of IMP-1 (P52699 whole entry, looked up, species assumed): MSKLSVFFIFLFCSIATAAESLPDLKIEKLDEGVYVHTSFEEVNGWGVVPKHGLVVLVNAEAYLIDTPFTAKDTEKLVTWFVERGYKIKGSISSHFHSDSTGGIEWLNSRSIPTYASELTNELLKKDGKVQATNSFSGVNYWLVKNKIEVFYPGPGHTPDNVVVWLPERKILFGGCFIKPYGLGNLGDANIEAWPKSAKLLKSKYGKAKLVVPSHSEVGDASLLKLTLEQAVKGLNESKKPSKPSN
Method in brief: as §1

[1] = system: Klebsiella pneumoniae expressing VIM-1 (IHMA599644); format: cell-based; conditions: VIM-1 strain IHMA599644, with imipenem 1 μg/ml, 95% inhibition of growth
Method in brief: (§2)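 Clinical isolates (E. coli NDM-1, S. marcescens IMP-1, K. pneumoniae VIM-1) were diluted 1:100 from saline suspension into 1.1×CAMHB and exposed to test compound with imipenem at 1 μg/ml. Plates were incubated at 35° C for 22 hours to 24 hours, and growth was read by absorbance.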

[2] = system: Escherichia coli expressing NDM-1 (CLB30005, CLB30016); format: cell-based; conditions: NDM-1 strain, with imipenem 1 μg/ml, 95% inhibition of growth
Method in brief: as §2

[3] = system: Serratia marcescens expressing IMP-1 (CL5741); format: cell-based; conditions: IMP-1 strain CL5741, with imipenem 1 μg/ml, 95% inhibition of growth
Method in brief: as §2

[4] = system: Pseudomonas aeruginosa efflux− (MB9799), IMP-1; format: cell-based; conditions: efflux− MB9799; imipenem at 2 μg/mL; in the presence of a class A, C, D serine β-lactamase inhibitor closely related to relebactam
Method in brief: (§3)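 Microbroth MIC tests in PAO1-background strains with fixed imipenem and/or ceftazidime, usually at the CLSI breakpoint, plus fixed class A/C β-lactamase inhibitor against AmpC. MBL inhibitor titrated; concentration restoring susceptibility recorded and compared as fold difference between efflux+ MB9798 and efflux− MB9799.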

[5] = system: Pseudomonas aeruginosa efflux+ (MB9798), IMP-1; format: cell-based; set-up: Concentration of metallo-β-lactamase inhibitor which restores susceptibility of efflux + (MB9798) strain to imipenem: unit not given here; conditions: efflux+ MB9798; imipenem at 2 μg/mL; in the presence of a class A, C, D serine β-lactamase inhibitor closely related to relebactam
Method in brief: as §3

[6] = system: Pseudomonas aeruginosa MB9798 vs MB9799; conditions: fold difference between efflux+ (MB9798) and efflux− (MB9799) strains; imipenem at 2 μg/mL
Method in brief: as §3

[7] = fluorescence assay, read-out: VIM-1 IC50

Row | Structure (SMILES) | IC50 (VIM-1; [7]) | IC50 (NDM-1) | IC50 (IMP-1) | Klebsiella pneumoniae MITC95 [1] | Escherichia coli MITC95 [2] | Serratia marcescens MITC95 [3] | Concentration of metallo-β-lactamase inhibitor which restores susceptibility of efflux − (MB9799) strain to imipenem [4] | Concentration of metallo-β-lactamase inhibitor which restores susceptibility of efflux + (MB9798) strain to imipenem [5] | Efflux ratio [6] | IC50 (VIM-1; VIM-1 IC50, fluorescence assay)
1 | NCc1nc2cc(-c3ccc(S(=O)(=O)NC[C@H](O)CN)c(S(N)(=O)=O)c3-c3nn[nH]n3)ccc2s1 [Example 463, (R)—N1-(3-amino-2-hydroxypropyl)-4-(2-(aminomethyl)benzo[d]thiazol-5-yl)-3-(2H-tetrazol-5-yl)benzene-1,2-disulfonamide] | 0.091 nM | 0.145 nM | 0.325 nM | 1.563 µM | 0.7813 µM | 0.7813 µM | 0.7813 | 0.7813 | 1.00 | –
2 | NCc1nc2cc(-c3ccc(S(=O)(=O)NC[C@H](O)CN)c(S(N)(=O)=O)c3-c3nn[nH]n3)ccc2[nH]1 [Example 464, (R)—N1-(3-amino-2-hydroxypropyl)-4-(2-(aminomethyl)-1H-benzo[d]imidazole-5-yl)-3-(2H-tetrazol-5-yl)benzene-1,2-disulfonamide] | 0.198 nM | 0.274 nM | 1.84 nM | 1.563 µM | 0.7813 µM | 1.563 µM | 0.7813 | 0.7813 | 1.00 | –
3 | NCc1nc2cc(-c3ccc(S(=O)(=O)NC[C@@H](O)CN)c(S(N)(=O)=O)c3-c3nn[nH]n3)ccc2[nH]1 [Example 465] | 0.133 nM | 0.223 nM | 1.15 nM | 1.563 µM | 0.7813 µM | 1.563 µM | 0.7813 | 0.7813 | 1.00 | –
4 | NCCNS(=O)(=O)c1ccc(-c2ccc3[nH]c(CN)nc3c2)c(-c2nn[nH]n2)c1S(N)(=O)=O [Example 466, N1-(2-aminoethyl)-4-(2-(aminomethyl)-1H-benzo[d]imidazol-5-yl)-3-(2H-tetrazol-5-yl)benzene-1,2-disulfonamide] | 0.138 nM | 0.359 nM | 0.967 nM | 1.563 µM | 0.7813 µM | 1.563 µM | 0.7813 | 0.7813 | 1.00 | –
5 | Cc1cc(-c2ccc(S(=O)(=O)NC[C@@H](O)CN)c(S(N)(=O)=O)c2-c2nn[nH]n2)cnc1N [Example 468, (S)-N1-(3-amino-2-hydroxypropyl)-4-(6-amino-5-methylpyridin-3-yl)-3-(2H-tetrazol-5-yl)benzene-1,2-disulfonamide] | 0.0869 nM | 0.133 nM | 0.569 nM | 3.125 µM | 0.3906 µM | 0.7813 µM | 0.7813 | 1.563 | 2.00 | –
6 | NC[C@H](O)CNS(=O)(=O)c1ccc(-c2cnc(N)c(F)c2)c(-c2nn[nH]n2)c1S(N)(=O)=O [Example 469, (S)-N1-(3-amino-2-hydroxypropyl)-4-(6-amino-5-fluoropyridin-3-yl)-3-(2H-tetrazol-5-yl)benzene-1,2-disulfonamide] | – | 0.153 nM | 0.554 nM | 3.125 µM | 1.563 µM | 3.125 µM | 0.7813 | 0.7813 | 1.00 | 0.0868 nM
7 | NS(=O)(=O)c1c(S(=O)(=O)N[C@@H]2CCNC2)ccc(-c2cccc(Nc3nc(CO)cs3)c2)c1-c1nn[nH]n1 [Example 470, (R)-3′-((4-(hydroxymethyl)thiazol-2-yl)amino)-N4-(pyrrolidin-3-yl)-2-(2H-tetrazol-5-yl)-[1,1′-biphenyl]-3,4-disulfonamide] | 0.11 nM | 0.0496 nM | 0.134 nM | 3.125 µM | 0.7813 µM | 1.563 µM | 0.7813 | 1.563 | 2.00 | –
8 | NC(=O)c1csc(Nc2cccc(-c3ccc(S(=O)(=O)N[C@@H]4CCNC4)c(S(N)(=O)=O)c3-c3nn[nH]n3)c2)n1 [Example 471, (R)-2-((4′-(N-(pyrrolidin-3-yl)sulfamoyl)-3′-sulfamoyl-2′-(2H-tetrazol-5-yl)-[1,1′-biphenyl]-3-yl)amino)thiazole-4-carboxamide] | 0.0734 nM | 0.0303 nM | 0.111 nM | 3.125 µM | 1.563 µM | 1.563 µM | 0.7813 | 3.125 | 4.00 | –
9 | NS(=O)(=O)c1c(S(=O)(=O)N[C@H]2CCNC2)ccc(-c2cccc(Nc3ncc[nH]3)c2)c1-c1nn[nH]n1 [Example 472, dihydrochloride] | – | 0.114 nM | 0.847 nM | 0.7813 µM | 0.7813 µM | 0.7813 µM | 0.3906 | 1.563 | 4.00 | 0.189 nM
10 | NCc1nc2cc(-c3ccc(S(=O)(=O)NC[C@@H](O)CN)c(S(N)(=O)=O)c3-c3nn[nH]n3)ccc2s1 [Example 473, (S)-N1-(3-amino-2-hydroxypropyl)-4-(2-(aminomethyl)benzo[d]thiazol-5-yl)-3-(2H-tetrazol-5-yl)benzene-1,2-disulfonamide] | 0.109 nM | 0.136 nM | 0.329 nM | 1.563 µM | 0.7813 µM | 1.563 µM | 0.7813 | 0.7813 | 1.00 | –
11 | NCc1nc2cc(-c3ccc(S(=O)(=O)N[C@@H](CN)CO)c(S(N)(=O)=O)c3-c3nn[nH]n3)ccc2[nH]1 [Example 474, (S)-N1-(1-amino-3-hydroxypropan-2-yl)-4-(2-(aminomethyl)-1H-benzo[d]imidazol-5-yl)-3-(2H-tetrazol-5-yl)benzene-1,2-disulfonamide] | 0.141 nM | 0.104 nM | 0.522 nM | 1.563 µM | 0.7813 µM | 1.563 µM | 0.7813 | 0.7813 | 1.00 | –
12 | NCc1nc2cc(-c3ccc(S(=O)(=O)N[C@@H](CN)CO)c(S(N)(=O)=O)c3-c3nn[nH]n3)ccc2s1 [Example 475, (S)-N1-(1-amino-3-hydroxypropan-2-yl)-4-(2-(aminomethyl)benzo[d]thiazol-5-yl)-3-(2H-tetrazol-5-yl)benzene-1,2-disulfonamide] | 0.0869 nM | 0.0604 nM | 0.13 nM | 1.563 µM | 0.7813 µM | 1.563 µM | 0.7813 | 0.7813 | 1.00 | –
